Reference: ChEMBL document CHEMBL3885861, “Open TG-GATES”

Organism: Rattus norvegicus
Assay: Open TG-GATES - Regimen: Single
Format: toxicity, organism-based, Sprague-Dawley
Set-up: regimen Single, gender Male, age 6 weeks
Details: in vivo, po, 4000 mg/kg, route gavage, dose level High; for APTT / Bas / Eos / Fbg / Hb / Ht / Lym / MCH / MCHC / MCV / Mono / Neu / PT / Plat / RBC / Ret / WBC: tissue Blood; for KIDNEY_L / KIDNEY_R / KIDNEY_TOTAL: tissue Kidney; for LIVER: tissue Liver; for A/G / ALP / ALT / AST / BUN / CRE / Ca / Cl / DBIL / GLC / IP / K / LDH / Na / PL / RALB / TBIL / TC / TG / TP / gamma-GTP: tissue Plasma

## CCO [ALCOHOL]
3 h
  TERMINAL_BW: 206.9 g
  APTT: 17.9 s
  Bas: 0%
  Eos: 1.6%
  Fbg: 188.4 mg/dL
  Hb: 13.4 g/dL
  Ht: 40.1%
  Lym: 78%
  MCH: 21.9 pg
  MCHC: 33.4%
  MCV: 65.6 fL
  Mono: 7.2%
  Neu: 13.8%
  PT: 12.2 s
  Plat: 110.6 x10_4/uL
  RBC: 612.2 x10_4/ul
  Ret: 9.9%
  WBC: 86.8 x10_2/uL
  KIDNEY_L: 1 g
  KIDNEY_R: 1 g
  KIDNEY_TOTAL: 1.9 g
  LIVER: 9.6 g
  A/G: 2.5
  ALP: 733.4 IU/L
  ALT: 35.2 IU/L
  AST: 65.8 IU/L
  BUN: 8.8 mg/dL
  CRE: 0.5 mg/dL
  Ca: 10.3 mg/dL
  Cl: 104.4 meq/L
  DBIL: 0.02 mg/dL
  GLC: 212.4 mg/dL
  IP: 9.1 mg/dL
  K: 4.7 meq/L
  LDH: 106.2 IU/L
  Na: 139.8 meq/L
  PL: 148.4 mg/dL
  RALB: 3.8 g/dL
  TBIL: 0.4 mg/dL
  TC: 79.8 mg/dL
  TG: 77.8 mg/dL
  TP: 5.3 g/dL
  gamma-GTP: 1.8 IU/L
6 h
  TERMINAL_BW: 206.9 g
  APTT: 19.1 s
  Bas: 0%
  Eos: 1.2%
  Fbg: 205 mg/dL
  Hb: 13.5 g/dL
  Ht: 40.4%
  Lym: 81%
  MCH: 21.3 pg
  MCHC: 33.4%
  MCV: 63.9 fL
  Mono: 4.6%
  Neu: 13.4%
  PT: 11.8 s
  Plat: 112.3 x10_4/uL
  RBC: 632.8 x10_4/ul
  Ret: 13.6%
  WBC: 124.9 x10_2/uL
  KIDNEY_L: 1 g
  KIDNEY_R: 1 g
  KIDNEY_TOTAL: 1.9 g
  LIVER: 9.6 g
  A/G: 2.3
  ALP: 839.4 IU/L
  ALT: 31 IU/L
  AST: 59.4 IU/L
  BUN: 8.6 mg/dL
  CRE: 0.5 mg/dL
  Ca: 10.4 mg/dL
  Cl: 104.2 meq/L
  DBIL: 0.078 mg/dL
  GLC: 204.6 mg/dL
  IP: 9.7 mg/dL
  K: 5 meq/L
  LDH: 78 IU/L
  Na: 139 meq/L
  PL: 153.6 mg/dL
  RALB: 3.7 g/dL
  TBIL: 0.4 mg/dL
  TC: 82.6 mg/dL
  TG: 46 mg/dL
  TP: 5.4 g/dL
  gamma-GTP: 1.4 IU/L
9 h
  TERMINAL_BW: 200.3 g
  APTT: 17.6 s
  Bas: 0%
  Eos: 1%
  Fbg: 205.2 mg/dL
  Hb: 13.5 g/dL
  Ht: 40.5%
  Lym: 76.4%
  MCH: 21.8 pg
  MCHC: 33.4%
  MCV: 65.3 fL
  Mono: 7%
  Neu: 15.6%
  PT: 12 s
  Plat: 107.8 x10_4/uL
  RBC: 621.6 x10_4/ul
  Ret: 9.9%
  WBC: 72.9 x10_2/uL
  KIDNEY_L: 0.9 g
  KIDNEY_R: 1 g
  KIDNEY_TOTAL: 1.9 g
  LIVER: 8.2 g
  A/G: 2.7
  ALP: 857.6 IU/L
  ALT: 30.6 IU/L
  AST: 65.8 IU/L
  BUN: 12.8 mg/dL
  CRE: 0.4 mg/dL
  Ca: 10.8 mg/dL
  Cl: 105.6 meq/L
  DBIL: 0.04 mg/dL
  GLC: 190.8 mg/dL
  IP: 10 mg/dL
  K: 5 meq/L
  LDH: 96.4 IU/L
  Na: 137 meq/L
  PL: 154 mg/dL
  RALB: 4.1 g/dL
  TBIL: 0.4 mg/dL
  TC: 79.8 mg/dL
  TG: 49 mg/dL
  TP: 5.6 g/dL
  gamma-GTP: 1.4 IU/L
24 h
  TERMINAL_BW: 210.8 g
  APTT: 16.5 s
  Bas: 0%
  Eos: 2%
  Fbg: 202 mg/dL
  Hb: 13.8 g/dL
  Ht: 40.7%
  Lym: 70.4%
  MCH: 21.5 pg
  MCHC: 33.8%
  MCV: 63.5 fL
  Mono: 11.4%
  Neu: 16.4%
  PT: 11.8 s
  Plat: 115.4 x10_4/uL
  RBC: 640.6 x10_4/ul
  Ret: 10.2%
  WBC: 84.1 x10_2/uL
  KIDNEY_L: 0.9 g
  KIDNEY_R: 1 g
  KIDNEY_TOTAL: 1.9 g
  LIVER: 9.5 g
  A/G: 2.6
  ALP: 971 IU/L
  ALT: 41.8 IU/L
  AST: 68.2 IU/L
  BUN: 17.6 mg/dL
  CRE: 0.5 mg/dL
  Ca: 10.9 mg/dL
  Cl: 103.4 meq/L
  DBIL: 0.014 mg/dL
  GLC: 200.4 mg/dL
  IP: 8.5 mg/dL
  K: 4.9 meq/L
  LDH: 102.6 IU/L
  Na: 138 meq/L
  PL: 155 mg/dL
  RALB: 4 g/dL
  TBIL: 0.3 mg/dL
  TC: 80.8 mg/dL
  TG: 109.8 mg/dL
  TP: 5.5 g/dL
  gamma-GTP: 1.2 IU/L
